“Also recorded” adds a separate entry of the source.
Key:
[1] = tested on: GFP-conjugated human V1bR; assay: Immunostaining and confocal microscopy: V1bR-GFP activation/internalization in HEK293 cells; assay type: cell-based; conditions: 1 nM, 60 min
Description: (§1) The most promising photoprobe, 12, with a 5.3-fold photoswitch activity window at V1bR, was selected for more comprehensive in vitro experiments to validate its application scope for biological and neurological studies. As a model system, we used HEK293 cells overexpressing GFP-tagged V1bR, where receptor activation via pCREB (phosphorylated cAMP response element binding protein) and V1bR-GFP internalization can be followed through immunostaining and confocal scanning microscopy.
(§2) HEK293 cells stably expressing a C-terminal-conjugated GFP human V1bR were cultured in a full growth medium consisting of DMEM/GlutaMAX (Gibco, Thermo Fisher), containing 0.5 mg/mL G-418 (Gibco, Thermo Fisher), 1 mM sodium pyruvate (Gibco, Thermo Fisher), and 10% fetal bovine serum (Gibco, Thermo Fisher). […]
(§3) Coverslips were first incubated with 5% normal donkey serum (Jackson Immuno Research), 2% bovine serum albumin (Sigma-Aldrich, Merck), and 0.2% Triton X-100 (Sigma-Aldrich, Merck) to block nonspecific protein binding. […] Images were analyzed with ZEN pro (Zeiss) ImageJ 1.52a and collated in CorelDraw 2019. To determine pCREB activation, the fluorescence was normalized to the negative control (cells treated with a serum-free medium without G-418 instead of 12), as already minor receptor interactions can lead to pCREB activity in overexpression systems.

pCREB = assay: Immunostaining and confocal microscopy: pCREB activation in HEK293 cells overexpressing V1bR-GFP; assay type: cell-based, human; conditions: 1 nM, 60 min, normalized to negative control; VP 10 nM positive control
Description: as §1, §2, §3

[2] = target: human oxytocin receptor (human) (UniProt P30559)
human oxytocin receptor (human), sequence (P30559 whole entry): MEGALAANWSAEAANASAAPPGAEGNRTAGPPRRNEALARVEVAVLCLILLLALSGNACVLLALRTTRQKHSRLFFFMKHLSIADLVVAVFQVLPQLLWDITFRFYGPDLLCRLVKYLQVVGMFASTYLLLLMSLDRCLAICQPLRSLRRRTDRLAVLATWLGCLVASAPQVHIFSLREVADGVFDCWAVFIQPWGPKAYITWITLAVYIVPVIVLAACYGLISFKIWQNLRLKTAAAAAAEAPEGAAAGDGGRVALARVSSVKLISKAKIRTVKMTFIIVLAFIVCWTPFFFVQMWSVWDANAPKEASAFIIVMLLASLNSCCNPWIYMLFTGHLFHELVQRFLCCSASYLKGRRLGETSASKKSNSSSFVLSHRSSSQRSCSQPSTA

Oxytocin, sequence (P01178 whole entry, looked up): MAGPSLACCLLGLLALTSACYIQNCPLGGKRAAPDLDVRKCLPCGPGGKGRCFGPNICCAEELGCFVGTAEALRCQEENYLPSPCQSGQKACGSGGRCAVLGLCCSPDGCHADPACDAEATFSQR

Row | Emax (efficacy, reference), IP-One accumulation, HEK293 cells expressing hOTR [2] [%] | Compound | V1bR-GFP receptor activation / internalization [1] | pCREB activation (CREB phosphorylation) (pCREB)
1 | – | N=C(N)NCCC[C@H](NC(=O)[C@@H]1CCCN1C(=O)[C@@H]1CSSC[C@H](N)C(=O)N[C@@H](Cc2ccc(O)cc2)C(=O)N[C@@H](Cc2ccc(/N=N/c3ccccc3)cc2)C(=O)N[C@@H](CCC(N)=O)C(=O)N[C@@H](CC(N)=O)C(=O)N1)C(=O)NCC(N)=O [E-12] | did not cause any visible receptor activation or internalization; also recorded: did not induce V1bR-GFP internalization; also recorded: inactive | inactive
2 | – | N=C(N)NCCC[C@H](NC(=O)[C@@H]1CCCN1C(=O)[C@@H]1CSSC[C@H](N)C(=O)N[C@@H](Cc2ccc(O)cc2)C(=O)N[C@@H](Cc2ccc(/N=N\c3ccccc3)cc2)C(=O)N[C@@H](CCC(N)=O)C(=O)N[C@@H](CC(N)=O)C(=O)N1)C(=O)NCC(N)=O [Z-12] | activated V1bR-GFP; also recorded: induced V1bR-GFP internalization | significantly (P < 0.001) activated pCREB at levels comparable to VP; also recorded: significantly induced CREB phosphorylation
3 | 100 | Oxytocin (from UniProt P01178 20-28) (peptide) | – | –

From article PMC10641831 (Journal of Medicinal Chemistry, 2023)
